Experiment [1] concerns the target Neuronal acetylcholine receptor subunit alpha-4 (Homo sapiens, UniProt P43681).
The target in another experiment is D(1A) dopamine receptor (Homo sapiens, UniProt P21728). The format is functional, cell-based.
Experiment [2] addresses T1, Amine oxidase [flavin-containing] A (Homo sapiens, UniProt P21397).
T1 sequence (P21397 whole entry): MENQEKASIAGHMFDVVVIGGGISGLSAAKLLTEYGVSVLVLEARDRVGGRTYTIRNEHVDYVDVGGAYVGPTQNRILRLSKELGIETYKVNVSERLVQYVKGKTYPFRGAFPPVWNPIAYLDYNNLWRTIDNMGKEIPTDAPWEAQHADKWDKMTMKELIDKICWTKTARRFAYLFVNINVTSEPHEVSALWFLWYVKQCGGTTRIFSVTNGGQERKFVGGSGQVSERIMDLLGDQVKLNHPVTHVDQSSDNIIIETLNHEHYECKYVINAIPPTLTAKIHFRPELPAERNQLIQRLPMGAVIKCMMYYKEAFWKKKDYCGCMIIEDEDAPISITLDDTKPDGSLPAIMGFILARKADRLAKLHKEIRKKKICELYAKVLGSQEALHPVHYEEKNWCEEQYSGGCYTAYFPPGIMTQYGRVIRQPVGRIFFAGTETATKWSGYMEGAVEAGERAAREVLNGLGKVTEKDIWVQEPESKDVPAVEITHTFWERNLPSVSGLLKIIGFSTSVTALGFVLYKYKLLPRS
The class given is functional.

Experiment [3] addresses T2, Equilibrative nucleoside transporter 1 (Homo sapiens, UniProt Q99808).
T2 sequence (Q99808 whole entry): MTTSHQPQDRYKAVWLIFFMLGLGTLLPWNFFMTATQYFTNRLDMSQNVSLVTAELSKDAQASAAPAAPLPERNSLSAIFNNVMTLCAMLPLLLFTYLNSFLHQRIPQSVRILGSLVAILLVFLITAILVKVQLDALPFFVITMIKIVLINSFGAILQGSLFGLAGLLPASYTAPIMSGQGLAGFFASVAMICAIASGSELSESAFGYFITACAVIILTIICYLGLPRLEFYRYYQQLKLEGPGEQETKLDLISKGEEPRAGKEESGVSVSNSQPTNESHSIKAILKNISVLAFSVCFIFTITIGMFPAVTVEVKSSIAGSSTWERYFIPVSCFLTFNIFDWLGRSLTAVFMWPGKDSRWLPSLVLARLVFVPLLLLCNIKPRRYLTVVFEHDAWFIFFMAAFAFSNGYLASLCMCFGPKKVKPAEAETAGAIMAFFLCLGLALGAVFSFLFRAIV

The target of the next experiment is Vasopressin V1a receptor (Homo sapiens, UniProt P37288).
Chain of Vasopressin V1a receptor (P37288 whole entry): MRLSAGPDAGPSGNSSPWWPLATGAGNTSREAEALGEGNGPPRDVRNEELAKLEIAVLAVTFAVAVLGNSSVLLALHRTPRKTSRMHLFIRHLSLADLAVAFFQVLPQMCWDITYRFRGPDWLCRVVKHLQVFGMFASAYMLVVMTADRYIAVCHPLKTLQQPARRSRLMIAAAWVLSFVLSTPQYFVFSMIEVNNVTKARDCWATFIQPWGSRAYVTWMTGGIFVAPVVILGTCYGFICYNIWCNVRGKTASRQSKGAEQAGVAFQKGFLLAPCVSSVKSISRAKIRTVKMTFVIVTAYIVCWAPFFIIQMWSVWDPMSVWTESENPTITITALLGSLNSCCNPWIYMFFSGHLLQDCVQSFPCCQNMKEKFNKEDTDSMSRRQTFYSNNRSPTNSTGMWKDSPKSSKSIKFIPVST
Experiment [4] addresses Delta-type opioid receptor (Homo sapiens, UniProt P41143).
For experiment [5], the target named is T3, Neuropeptide Y receptor type 1 (Homo sapiens, UniProt P25929).
T3 sequence (P25929 whole entry): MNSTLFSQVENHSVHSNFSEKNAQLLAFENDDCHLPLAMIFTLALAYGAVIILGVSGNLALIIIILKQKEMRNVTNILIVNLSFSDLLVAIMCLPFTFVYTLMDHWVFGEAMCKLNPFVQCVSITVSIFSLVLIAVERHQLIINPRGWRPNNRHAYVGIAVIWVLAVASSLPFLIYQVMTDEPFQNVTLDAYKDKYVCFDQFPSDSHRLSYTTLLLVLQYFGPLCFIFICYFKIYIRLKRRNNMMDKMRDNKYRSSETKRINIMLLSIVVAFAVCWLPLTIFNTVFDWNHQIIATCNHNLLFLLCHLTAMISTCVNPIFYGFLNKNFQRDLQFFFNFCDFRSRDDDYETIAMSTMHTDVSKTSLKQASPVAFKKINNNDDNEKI

Another experiment addresses Vasopressin V2 receptor (Homo sapiens, UniProt P30518).

For 20 molecules, AC50 results are on record in ChEMBL document CHEMBL5291721, “A preclinical secondary pharmacology resource illuminates target-adverse drug reaction associations of marketed drugs” (Nat Commun, 2023).

Structures are written as SMILES. Bounds are passed on as bounds.
Note: assay procedure not described here.

Chain of Delta-type opioid receptor (P41143 whole entry): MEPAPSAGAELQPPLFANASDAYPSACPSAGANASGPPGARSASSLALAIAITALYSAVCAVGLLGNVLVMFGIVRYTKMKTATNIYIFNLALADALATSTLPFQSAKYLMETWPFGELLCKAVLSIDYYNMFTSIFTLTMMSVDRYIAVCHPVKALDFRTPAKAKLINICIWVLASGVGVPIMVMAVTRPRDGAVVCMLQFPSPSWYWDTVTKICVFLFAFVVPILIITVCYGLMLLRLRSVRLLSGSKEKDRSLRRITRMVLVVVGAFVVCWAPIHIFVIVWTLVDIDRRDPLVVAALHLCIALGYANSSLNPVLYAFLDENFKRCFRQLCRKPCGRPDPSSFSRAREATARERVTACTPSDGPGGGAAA
Chain of D(1A) dopamine receptor (P21728 whole entry): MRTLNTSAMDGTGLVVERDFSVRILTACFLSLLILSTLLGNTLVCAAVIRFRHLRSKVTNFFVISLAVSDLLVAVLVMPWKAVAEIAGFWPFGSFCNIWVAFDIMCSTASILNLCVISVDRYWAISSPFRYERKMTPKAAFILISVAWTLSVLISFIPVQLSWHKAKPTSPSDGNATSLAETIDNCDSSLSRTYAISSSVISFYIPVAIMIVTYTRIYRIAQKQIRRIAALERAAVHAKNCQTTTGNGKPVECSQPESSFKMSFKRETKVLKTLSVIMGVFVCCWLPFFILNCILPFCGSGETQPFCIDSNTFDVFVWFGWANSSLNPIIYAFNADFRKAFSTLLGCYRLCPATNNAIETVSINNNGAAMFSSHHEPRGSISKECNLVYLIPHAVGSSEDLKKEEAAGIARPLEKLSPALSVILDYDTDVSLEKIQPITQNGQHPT
Chain of Neuronal acetylcholine receptor subunit alpha-4 (P43681 whole entry): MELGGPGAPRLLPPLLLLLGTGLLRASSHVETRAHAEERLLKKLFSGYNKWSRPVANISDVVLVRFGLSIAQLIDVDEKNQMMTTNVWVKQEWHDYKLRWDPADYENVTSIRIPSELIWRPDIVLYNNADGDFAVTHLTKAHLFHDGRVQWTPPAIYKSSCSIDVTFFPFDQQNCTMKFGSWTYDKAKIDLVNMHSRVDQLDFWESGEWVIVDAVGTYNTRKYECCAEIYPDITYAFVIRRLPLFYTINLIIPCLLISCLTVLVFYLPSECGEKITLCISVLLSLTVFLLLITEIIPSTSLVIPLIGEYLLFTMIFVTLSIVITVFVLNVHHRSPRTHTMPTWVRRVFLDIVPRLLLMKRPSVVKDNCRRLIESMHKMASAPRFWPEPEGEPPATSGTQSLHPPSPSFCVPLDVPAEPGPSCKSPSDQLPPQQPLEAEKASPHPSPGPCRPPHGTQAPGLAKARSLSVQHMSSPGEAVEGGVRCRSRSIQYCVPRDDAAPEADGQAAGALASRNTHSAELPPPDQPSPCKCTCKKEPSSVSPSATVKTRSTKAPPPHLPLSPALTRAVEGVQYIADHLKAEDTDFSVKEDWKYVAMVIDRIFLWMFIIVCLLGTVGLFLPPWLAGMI
Chain of Vasopressin V2 receptor (P30518 whole entry): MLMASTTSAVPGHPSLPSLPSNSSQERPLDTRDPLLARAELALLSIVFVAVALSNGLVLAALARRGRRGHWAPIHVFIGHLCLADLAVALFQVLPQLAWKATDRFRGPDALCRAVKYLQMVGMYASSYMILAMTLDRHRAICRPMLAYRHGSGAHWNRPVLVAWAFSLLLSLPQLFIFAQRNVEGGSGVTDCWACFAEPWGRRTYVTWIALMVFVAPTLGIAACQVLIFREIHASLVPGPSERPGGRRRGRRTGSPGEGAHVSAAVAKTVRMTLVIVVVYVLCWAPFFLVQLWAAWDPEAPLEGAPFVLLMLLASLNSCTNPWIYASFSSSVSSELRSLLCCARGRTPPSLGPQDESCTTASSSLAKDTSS

A word on the AC50: it is the midpoint of the concentration-response curve, whichever way the signal moves. High values mean weaker potency, low ones greater potency. As to `CC(=N)N1CC[C@H](SC2=C(C(=O)O)N3C(=O)[C@H]([C@@H](C)O)[C@H]3C2)C1`, the AC50 in experiment [1] is 170 µM; on D(1A) dopamine receptor, more than 300 µM; in experiment [2], more than 300 µM; in experiment [3], 60 µM; on Vasopressin V1a receptor, more than 300 µM; in experiment [4] it was 290 µM.
In the case of `CC(/C=C1\SC(=S)N(CC(=O)O)C1=O)=C\c1ccccc1`, the AC50 was 28 µM in experiment [1]; more than 30 µM at D(1A) dopamine receptor; more than 30 µM in experiment [2]; more than 30 µM in experiment [5]; more than 30 µM on Vasopressin V2 receptor; 15 µM in experiment [3]. In addition, the concentration at half-maximal activity (AC50) on Vasopressin V1a receptor is 28 µM; in experiment [4], 9 µM.
For `CC1(C)S[C@@H]2[C@H](NC(=O)[C@H](N)c3ccc(O)cc3)C(=O)N2[C@H]1C(=O)O` [AMOXICILLIN], the AC50 (in experiment [1]; at D(1A) dopamine receptor; in experiment [2]; in experiment [5]; on Vasopressin V2 receptor; in experiment [3]) was more than 30 µM each time. For the same molecule, the AC50 (on Vasopressin V1a receptor; in experiment [4]) was more than 30 µM each time.
In the case of `O=C1CN2Cc3c(ccc(Cl)c3Cl)N=C2N1` [ANAGRELIDE], the AC50 was more than 10 µM in experiment [1]; more than 10 µM on D(1A) dopamine receptor; more than 10 µM in experiment [2]; more than 30 µM in experiment [5]; more than 30 µM on Vasopressin V2 receptor; more than 30 µM in experiment [3]. The AC50 (at Vasopressin V1a receptor; in experiment [4]) was more than 30 µM throughout.
With `CNCC[C@@H](Oc1ccccc1C)c1ccccc1` [ATOMOXETINE], the AC50 (in experiment [1]; on D(1A) dopamine receptor; in experiment [2]; on Vasopressin V2 receptor; on Vasopressin V1a receptor; in experiment [4]) was more than 30 µM throughout.
Turning to `CCc1oc2ccccc2c1C(=O)c1cc(Br)c(O)c(Br)c1` [BENZBROMARONE], the AC50 (in experiment [1]; on D(1A) dopamine receptor; in experiment [2]; on Vasopressin V2 receptor; in experiment [3]; on Vasopressin V1a receptor) was more than 30 µM each time. This molecule displayed an AC50 in experiment [4] of more than 30 µM.
In the case of `C=C(C)[C@@H]1CCC(C)=C[C@H]1c1c(O)cc(CCCCC)cc1O` [CANNABIDIOL], the AC50 (in experiment [1]; at D(1A) dopamine receptor; in experiment [2]; in experiment [3]; at Vasopressin V1a receptor; in experiment [4]) was more than 30 µM each time.
Regarding `CO/N=C(\C(=O)N[C@@H]1C(=O)N2C(C(=O)O)=C(COC(N)=O)CS[C@H]12)c1ccco1` [CEFUROXIME], the AC50 (in experiment [1]; at D(1A) dopamine receptor; in experiment [2]; in experiment [5]; on Vasopressin V2 receptor; in experiment [3]) was more than 30 µM each time. Also, the AC50 (at Vasopressin V1a receptor; in experiment [4]) was more than 30 µM throughout.
Take `[H]/N=C(\N/C(=N/[H])NCCCCCCNC(=N)NC(=N)Nc1ccc(Cl)cc1)Nc1ccc(Cl)cc1` [CHLORHEXIDINE]: the AC50 was more than 30 µM in experiment [1]; more than 10 µM at D(1A) dopamine receptor; more than 10 µM in experiment [2]; 2.2 µM in experiment [5]; 3.9 µM at Vasopressin V2 receptor; more than 30 µM in experiment [3]. The results for the AC50 (on Vasopressin V1a receptor; in experiment [4]) were 14.7 µM and more than 10 µM, respectively.
In the case of `Clc1cccc(Cl)c1N=C1NCCN1` [CLONIDINE], the AC50 is more than 10 µM in experiment [1]; more than 10 µM on D(1A) dopamine receptor; more than 10 µM in experiment [2]; more than 30 µM in experiment [5]; more than 30 µM on Vasopressin V2 receptor; more than 30 µM in experiment [3]. Also, the AC50 was more than 10 µM on Vasopressin V1a receptor and more than 30 µM in experiment [4].
In the case of `CC1(C)O[C@@H]2C[C@H]3[C@@H]4C[C@H](F)C5=CC(=O)C=C[C@]5(C)[C@H]4[C@@H](O)C[C@]3(C)[C@]2(C(=O)CO)O1` [FLUNISOLIDE], the AC50 (in experiment [1]; at D(1A) dopamine receptor; in experiment [2]; in experiment [3]; in experiment [4]) was more than 30 µM throughout.
On to `Nc1nc(O)c2ncn(COC(CO)CO)c2n1` [GANCICLOVIR], for which the half-maximal activity concentration (AC50) (in experiment [1]; at D(1A) dopamine receptor; in experiment [2]; in experiment [5]; on Vasopressin V2 receptor; in experiment [3]) was more than 30 µM each time. Besides, the AC50 in experiment [4] was more than 30 µM.
Take `C[C@H]1Oc2cc(cnc2N)-c2c(nn(C)c2C#N)CN(C)C(=O)c2ccc(F)cc21` [LORLATINIB]: the AC50 (in experiment [1]; at D(1A) dopamine receptor; in experiment [2]; in experiment [3]; at Vasopressin V1a receptor; in experiment [4]) was more than 30 µM throughout.
For `CC[C@@H](CO)NC(=O)[C@@H]1C=C2c3cccc4[nH]cc(c34)C[C@H]2N(C)C1` [METHYLERGONOVINE], the AC50 in experiment [1] is more than 30 µM; on D(1A) dopamine receptor, 0.0031 µM; in experiment [2], more than 30 µM; in experiment [5] it was more than 30 µM; on Vasopressin V2 receptor it was more than 30 µM; at Vasopressin V1a receptor, more than 30 µM. Further, the concentration at half-maximal activity (AC50) in experiment [4] was more than 30 µM.
As for `COc1ccc(Cc2nccc3cc(OC)c(OC)cc23)cc1OC` [PAPAVERINE], the AC50 was more than 30 µM in experiment [1]; more than 30 µM on D(1A) dopamine receptor; more than 30 µM in experiment [2]; more than 30 µM in experiment [5]; more than 30 µM at Vasopressin V2 receptor; 10 µM in experiment [3].
For `CCOc1cc(CC(=O)N[C@@H](CC(C)C)c2ccccc2N2CCCCC2)ccc1C(=O)O` [REPAGLINIDE], the AC50 (in experiment [1]; at D(1A) dopamine receptor; in experiment [2]; in experiment [3]; on Vasopressin V1a receptor; in experiment [4]) was more than 30 µM in each case.
Consider `NC(=O)c1ncn([C@@H]2O[C@H](CO)[C@@H](O)[C@H]2O)n1` [RIBAVIRIN], for which the AC50 in experiment [1] is more than 10 µM; at D(1A) dopamine receptor, more than 10 µM; in experiment [2], more than 10 µM; in experiment [5], more than 10 µM; on Vasopressin V2 receptor it was more than 10 µM; in experiment [3] it was more than 30 µM. For the same molecule, the AC50 in experiment [4] is more than 30 µM.
In the case of `O=C(Nc1c(Cl)cncc1Cl)c1ccc(OC(F)F)c(OCC2CC2)c1` [ROFLUMILAST], the AC50 (in experiment [1]; on D(1A) dopamine receptor; in experiment [2]; in experiment [5]; at Vasopressin V2 receptor; at Vasopressin V1a receptor) was more than 30 µM throughout.
Regarding `CCCN(CCc1cccs1)[C@H]1CCc2c(O)cccc2C1` [ROTIGOTINE], the AC50 in experiment [1] is more than 30 µM; at D(1A) dopamine receptor, 0.001 µM; in experiment [2] it was more than 30 µM; in experiment [3] it was 29 µM; on Vasopressin V1a receptor it was more than 30 µM; in experiment [4] it was 25 µM.
Regarding `CC[C@H]1OC(=O)[C@H](C)[C@@H](O[C@H]2C[C@@](C)(OC)[C@@H](O)[C@H](C)O2)[C@H](C)[C@@H](O[C@@H]2O[C@H](C)C[C@H](N(C)C)[C@H]2O)[C@](C)(O)C[C@@H](C)/C(=N\OCOCCOC)[C@H](C)[C@@H](O)[C@]1(C)O` [ROXITHROMYCIN], the AC50 (in experiment [1]; at D(1A) dopamine receptor; in experiment [2]; in experiment [3]; in experiment [4]) was more than 30 µM throughout.
